Source: publication PMC6906232 (The Journal of pharmacy and pharmacology, 2019)

Target: D184A mutant CB1 receptor (Homo sapiens, UniProt P21554, D184A)
Assay: Methanandamide competition binding with [3H]CP55940 as tracer
Conditions: [3H]CP55940 tracer

D184A mutant CB1 receptor, sequence (P21554 whole entry D184A): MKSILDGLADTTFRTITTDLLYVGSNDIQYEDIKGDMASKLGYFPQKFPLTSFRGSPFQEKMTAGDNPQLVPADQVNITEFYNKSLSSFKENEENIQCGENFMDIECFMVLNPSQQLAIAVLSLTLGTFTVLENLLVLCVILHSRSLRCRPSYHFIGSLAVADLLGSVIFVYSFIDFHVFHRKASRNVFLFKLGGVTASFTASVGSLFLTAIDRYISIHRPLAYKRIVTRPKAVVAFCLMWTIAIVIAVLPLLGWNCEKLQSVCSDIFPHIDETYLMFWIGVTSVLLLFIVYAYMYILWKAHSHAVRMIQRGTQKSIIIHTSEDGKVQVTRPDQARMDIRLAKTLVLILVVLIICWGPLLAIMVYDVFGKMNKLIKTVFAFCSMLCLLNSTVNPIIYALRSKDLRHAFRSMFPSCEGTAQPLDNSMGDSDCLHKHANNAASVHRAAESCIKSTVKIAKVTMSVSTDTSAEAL

CCCCC/C=C\C/C=C\C/C=C\C/C=C\CCCC(=O)N[C@H](C)CO [methanandamide]
methanandamide binding (agonist alone, no modulator): did not bind
methanandamide binding (with 1 μM PSNCBAM-1): binding was restored
